Results published in patent US4736051A, “Process for the preparation of an alkali metal salt of a diester phosphoric acid” (Kao Corporation, priority 1985, dated 1988).

Legend:
Format in all cases: physicochemical
[1] = Phase diagram in aqueous system (FIG. 1)
[2] = Hygroscopicity of isolated powder; conditions: white powder
[3] = Lather amount (lather volume) of 5% aqueous solution of surface active agent; conditions: 100 g, 1000 rpm, 30 seconds agitation, 10 seconds standing, 40° C.
Description: The lather amount was measured according to the following manner. An aqueous solution containing 5% of surface active agent is prepared and 100 g of the aqueous solution is poured into a measuring cylinder, followed by agitation for 30 seconds by agitator. After agitation, the aqueous solution is placed as it is for 10 seconds, followed by subjecting to measurement of the lather volume. The revolution of the agitator is 1000 rpm and the agitator paddles are reversely rotated every 5 seconds. Temperature was maintained 40° C. during the measurement.

Craft point = assay: Craft point

hygroscopicity [2]	Compound	phase diagram in aqueous systems [1]	lather amount (lather Vol. ml) [3]	craft point (°C.) (Craft point)
–	C=C(C)C(=O)OCC(O)COP(=O)([O-])OCCCCCCCCCCCC.[Na+] (stereo not drawn) [Compound (XIV), sodium dodecyl 2-hydroxy-3-methacryloyloxypropyl phosphate]	liquid crystals	–	–
very hygroscopic	CCCCCCCCCCCCOP(=O)([O-])OCC(O)C[N+](C)(C)C (stereo not drawn) [Example 14]	–	–	–
–	CCCCCCCCCCCCOP(=O)([O-])[O-].[Na+].[Na+] [Sodium 1 dodecyl phosphate]	–	260 mL	32 °C
–	Sodium 2 dodecyl phosphate	–	230 mL	20 °C
